Results on 57 molecules are retold here after patent US20240262833A1, “FUSED HETEROCYCLIC DERIVATIVES AS NEGATIVE ALLOSTERIC MODULATORS OF MGLU7 RECEPTOR” (Addex Pharma S.A., priority 2021, published 2024).

T1 sequence (Q14831 35-922 isoform Q14831-2): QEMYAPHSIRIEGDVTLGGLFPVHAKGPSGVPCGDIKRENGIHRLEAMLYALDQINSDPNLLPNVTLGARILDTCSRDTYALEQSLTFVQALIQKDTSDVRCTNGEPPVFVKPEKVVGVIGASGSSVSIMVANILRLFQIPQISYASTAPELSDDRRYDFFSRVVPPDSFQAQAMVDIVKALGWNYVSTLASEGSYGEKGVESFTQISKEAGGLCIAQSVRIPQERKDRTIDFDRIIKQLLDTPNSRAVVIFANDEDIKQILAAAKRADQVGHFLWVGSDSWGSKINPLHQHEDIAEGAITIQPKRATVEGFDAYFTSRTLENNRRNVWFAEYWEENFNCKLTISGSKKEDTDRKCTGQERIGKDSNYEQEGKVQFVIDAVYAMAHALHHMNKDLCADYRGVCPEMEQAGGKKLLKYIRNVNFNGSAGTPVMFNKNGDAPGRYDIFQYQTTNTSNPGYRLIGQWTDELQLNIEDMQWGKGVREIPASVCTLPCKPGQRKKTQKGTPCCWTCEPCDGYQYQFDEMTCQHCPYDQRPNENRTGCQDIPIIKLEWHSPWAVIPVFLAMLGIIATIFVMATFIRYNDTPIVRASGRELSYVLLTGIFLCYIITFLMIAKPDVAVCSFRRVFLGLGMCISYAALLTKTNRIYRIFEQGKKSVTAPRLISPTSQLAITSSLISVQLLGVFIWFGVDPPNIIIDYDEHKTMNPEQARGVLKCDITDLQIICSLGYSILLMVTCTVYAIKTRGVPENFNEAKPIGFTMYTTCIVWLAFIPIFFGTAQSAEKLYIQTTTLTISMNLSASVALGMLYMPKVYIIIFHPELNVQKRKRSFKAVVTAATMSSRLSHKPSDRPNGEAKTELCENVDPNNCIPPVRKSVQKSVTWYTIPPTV

This test concerns the target T1, human metabotropic glutamate 7 receptor (hmGlu7) (Homo sapiens, UniProt Q14831).
T1 construct: expressed in transfected cells
Put plainly: mGlu7 assay on HEK-expressing human mGlu7: fluorescent cell based Ca2+ mobilization assay (FLIPR), inhibition of EC80 L-AP4 response. To be noted: HEK-293 cells expressing hmGlu7; EC80 L-AP4 stimulation; mean of at least three independent experiments in duplicate; read-out: Ca2+ Flux (mean IC50). The text has this:
mGlu7 Assay on HEK-Expressing Human mGlu7
The cDNA encoding the human metabotropic glutamate 7 receptor (hmGlu7), (accession number NM_181874.2, NCBI Nucleotide database browser), was subcloned into an expression vector containing also the hygromycin resistance gene. In parallel, the cDNA encoding a G protein allowing redirection of the activation signal to intracellular calcium flux was subcloned into a different expression vector containing also the Puromycin resistance gene. Transfection of both these vectors into HEK293 cells with PolyFect reagent (Qiagen) according to supplier's protocol, and hygromycin and puromycin treatment allowed selection of antibiotic resistant cells which had integrated stably one or more copies of the plasmids. Positive cellular clones expressing hmGlu7 were identified in a functional assay measuring changes in calcium fluxes in response to glutamate and L-AP4 or known mGlu7 orthosteric antagonists.
HEK-293 cells expressing hmGlu7 were maintained in media containing DMEM, Fetal Bovine Serum (10%), Glutamax™ (2 mM), penicillin (100 units/mL), streptomycin (100 μg/mL), geneticin (100 μg/mL) and hygromycin-B (40 μg/mL) and puromycin (1 μg/mL) at 37° C. with 5% CO2 in a humidified atmosphere.
Fluorescent Cell Based-Ca^2+ Mobilization Assay Human mGlu7 HEK-293 cells were plated out 24 hours prior to a fluorescent cell-based calcium mobilization assay using FLIPR^384 assay (Molecular Device, Sunnyvale, CA, USA) in black-walled, clear-bottomed, poly-L-ornithine-coated 384-well plates at a density of 25,000 cells/well in a glutamine/glutamate free DMEM medium containing fetal bovine serum (10%), penicillin (100 units/mL), streptomycin (100 μg/mL) and doxycyline (1 μg/ml) at 37° C. with 5% CO2 in a humidified atmosphere.
On the day of the assay, the medium was aspirated and the cells were loaded with a 3 μM solution of Fluo4-AM (LuBioScience, Lucerne, Switzerland) in 0.03% pluronic acid. After 1 hour at 37° C./5% CO2, the non incorporated dye was removed by washing cell plate with the assay buffer. All assays were performed in a pH 7.4 buffered-solution containing 20 mM HEPES, 143 mM NaCl, 6 mM KCl, 1 mM MgSO4, 1 mM CaCl2, 0.125 mM sulfinpyrazone and 0.1% glucose.
After 10 s of basal fluorescence recording, various concentrations of the compounds of the invention were added to the cells. Changes in fluorescence levels were first monitored for 180 s in order to detect any agonist activity of the compounds. Then the cells were stimulated by an EC80 L-AP4 concentration for an additional 110 s in order to measure inhibiting activities of the compounds of the invention. EC80 L-AP4 concentration is the concentration giving 80% of the maximal glutamate response.
The concentration-response curves of L-AP4 or representative compounds of the present invention were generated using the Prism GraphPad software (Graph Pad Inc, San Diego, USA). The curves were fitted to a four-parameter logistic equation: […]
allowing determination of IC50 values.
The Table 3 below represents the mean IC50 obtained from at least three independent experiments of selected molecules performed in duplicate.
With `COc1cccc(-n2c(C)c3cnn(-c4ccccc4OC)c(=O)c3c2C)c1` [1-148], the IC50 fell in the range of 100 to 1000 nM.
The same measure for `COc1cccc(-n2c(C)c3cnn(-c4ccccc4F)c(=O)c3c2C)c1` [1-149]: under 100 nM.
The same measure for `COc1cccc(-n2c(C)c3cnn(-c4ccccc4Cl)c(=O)c3c2C)c1` [1-150]: 100 to 1000 nM; for `Cc1c2cnn(-c3cccc(S(C)(=O)=O)c3)c(=O)c2c(C)n1-c1cccc(N2CCC2)c1` [1-151]: under 100 nM; for `Cc1c2cnn(-c3cccc(C(N)=O)c3)c(=O)c2c(C)n1-c1cccc(N2CCC2)c1` [1-152]: 100 to 1000 nM.
Under `Cc1c2cnn(-c3ccccn3)c(=O)c2c(C)n1-c1cccc(N2CC(F)(F)C2)c1` [1-153] stands 100 to 1000 nM; under `Cc1cccc(-n2ncc3c(C)n(-c4cccc(N5CCC5)c4)c(C)c3c2=O)n1` [1-154], 100 to 1000 nM; under `Cc1ccc(-n2ncc3c(C)n(-c4cccc(N5CCC5)c4)c(C)c3c2=O)nc1` [1-155], under 100 nM.
Consider `Cc1c2cnn(-c3ccncc3)c(=O)c2c(C)n1-c1cccc(N2CCC2)c1` [1-156], for which the IC50 is under 100 nM.
Under `Cc1ccc(-n2ncc3c(C)n(-c4cccc(N5CCC5)c4)c(C)c3c2=O)cn1` [1-157] stands under 100 nM.
The same measure for `Cc1cncc(-n2ncc3c(C)n(-c4cccc(N5CCC5)c4)c(C)c3c2=O)c1` [1-158]: under 100 nM; for `Cc1cccnc1-n1ncc2c(C)n(-c3cccc(N4CCC4)c3)c(C)c2c1=O` [1-159]: 100 to 1000 nM; for `Cc1c2cnn(-c3ccc(C#N)cn3)c(=O)c2c(C)n1-c1cccc(N2CCC2)c1` [1-160]: under 100 nM.
The same measure for `Cc1ccnc(-n2ncc3c(C)n(-c4cccc(N5CCC5)c4)c(C)c3c2=O)c1` [1-161]: under 100 nM; for `COCCOc1ccc(-n2ncc3c(C)n(-c4cccc(N5CCC5)c4)c(C)c3c2=O)cc1` [1-162]: under 100 nM; for `COc1ccc(-n2ncc3c(C)n(-c4cccc(N5CCC5)c4)c(C)c3c2=O)cc1CO` [1-163]: under 100 nM.
As to `Cc1c2cnn(-c3cccnc3)c(=O)c2c(C)n1-c1cccc(N2CCC2)c1` [1-164], the IC50 was under 100 nM.
The same measure for `Cc1cc(-n2ncc3c(C)n(-c4cccc(N5CCC5)c4)c(C)c3c2=O)cc(C)n1` [1-165]: under 100 nM.
As for `COc1cc(-n2ncc3c(C)n(-c4cccc(N5CCC5)c4)c(C)c3c2=O)ccc1CO` [1-166], the IC50 is under 100 nM.
Under `Cc1c2cnn(-c3cccc(N4CCOCC4)c3)c(=O)c2c(C)n1-c1cccc(N2CCC2)c1` [1-167] stands 100 to 1000 nM; under `Cc1c2cnn(-c3ccc(N4CCCC4)cc3)c(=O)c2c(C)n1-c1cccc(N2CCC2)c1` [1-168, 6-(3-(Azetidin-1-yl)phenyl)-5,7-dimethyl-2-(4-(pyrrolidin-1-yl)phenyl)-2,6-dihydro-1H-pyrrolo[3,4-d]pyridazin-1-one], 100 to 1000 nM; under `Cc1c2cnn(-c3ccc(CCO)cc3)c(=O)c2c(C)n1-c1cccc(N2CCC2)c1` [1-169, 6-(3-(Azetidin-1-yl)phenyl)-2-(4-(2-hydroxyethyl)phenyl)-5,7-dimethyl-2,6-dihydro-1H-pyrrolo[3,4-d]pyridazin-1-one], under 100 nM.
Under `Cc1c2cnn(-c3ccc(C(C)(C)O)cc3)c(=O)c2c(C)n1-c1cccc(N2CCC2)c1` [1-170, 6-(3-(Azetidin-1-yl)phenyl)-2-(4-(2-hydroxypropan-2-yl)phenyl)-5,7-dimethyl-2,6-dihydro-1H-pyrrolo[3,4-d]pyridazin-1-one] stands under 100 nM.
Consider `CC(=O)c1ccc(-n2ncc3c(C)n(-c4cccc(N5CCC5)c4)c(C)c3c2=O)cc1` [1-171], for which the concentration for half-maximal inhibition (IC50) was under 100 nM.
Turning to `COc1cccc(-n2c(C)c3cnn(-c4ccc(C)cn4)c(=O)c3c2C)c1` [1-172], the IC50 was 100 to 1000 nM.
As to `Cc1c2cnn(-c3ccc(F)cn3)c(=O)c2c(C)n1-c1cccc(N2CCC2)c1` [1-173], the IC50 is under 100 nM.
The same measure for `Cc1c2cnn(-c3ccc(N4CCNCC4)cc3)c(=O)c2c(C)n1-c1cccc(N2CCC2)c1` [1-174]: under 100 nM; for `COc1cc(OC)cc(-n2c(C)c3cnn(-c4ccccn4)c(=O)c3c2C)c1` [1-175]: 100 to 1000 nM; for `COc1ccccc1-n1ncc2c(C)n(-c3cccc(N4CCC4)c3)c(C)c2c1=O` [1-176]: 100 to 1000 nM.
Under `Cc1c2cnn(-c3ccccc3F)c(=O)c2c(C)n1-c1cccc(N2CCC2)c1` [1-177] stands under 100 nM.
Under `Cc1c2cnn(-c3ccc(N4CCNC(=O)C4)cc3)c(=O)c2c(C)n1-c1cccc(N2CCC2)c1` [1-178] stands under 100 nM.
Take `Cc1c2cnn(-c3ccccn3)c(=O)c2c(C)n1-c1cccc(N2CCC(C)(C)C2)c1` [1-179]: the half-maximal inhibitory concentration (IC50) lay within 100 to 1000 nM.
The same measure for `CNC(=O)Cc1ccc(-n2ncc3c(C)n(-c4cccc(N5CCC5)c4)c(C)c3c2=O)cc1` [1-180]: under 100 nM.
The same measure for `Cc1c2cnn(-c3ccc(I)cc3)c(=O)c2c(C)n1-c1cccc(N2CCC2)c1` [1-181]: 1000 to 10000 nM.
The same measure for `Cc1cc(-n2ncc3c(C)n(-c4cccc(N5CCC5)c4)c(C)c3c2=O)ccn1` [1-182]: under 100 nM.
`Cc1c2cnn(-c3ccc(Cl)cn3)c(=O)c2c(C)n1-c1cccc(N2CCC2)c1` [1-183]: the IC50 was under 100 nM.
The same measure for `Cc1c2cnn(-c3ccc(C(=O)CNC(=O)OC(C)(C)C)cc3)c(=O)c2c(C)n1-c1cccc(N2CCC2)c1` [1-184]: 100 to 1000 nM.
The same measure for `Cc1c2cnn(-c3ccc(CC(N)=O)cc3)c(=O)c2c(C)n1-c1cccc(N2CCC2)c1` [1-185]: under 100 nM; for `Cc1c2cnn(-c3ccccn3)c(=O)c2c(C)n1-c1ccc(C2CC2)cc1` [1-186]: 100 to 1000 nM.
The same measure for `Cc1c2cnn(-c3ccccn3)c(=O)c2c(C)n1-c1cccc(Oc2ccccc2)c1` [1-187]: 1000 to 10000 nM; for `Cc1c2cnn(-c3ccc(CCF)cc3)c(=O)c2c(C)n1-c1cccc(N2CCC2)c1` [1-189, 6-(3-(Azetidin-1-yl)phenyl)-2-(4-(2-fluoroethyl)phenyl)-5,7-dimethyl-2,6-dihydro-1H-pyrrolo[3,4-d]pyridazin-1-one]: under 100 nM.
For the molecule `Cc1c2cnn(C3CCCC3)c(=O)c2c(C)n1-c1cccc(N2CCC2)c1` [1-190], the IC50 is 100 to 1000 nM.
Under `COc1cc(F)ccc1-n1c(C)c2cnn(-c3ccccn3)c(=O)c2c1C` [1-191] stands 1000 to 10000 nM.
The same measure for `Cc1c2cnn(-c3ccccn3)c(=O)c2c(C)n1-c1ccc(F)c(N2CCC2)c1` [1-192]: 100 to 1000 nM.
Under `COc1ccccc1-n1c(C)c2cnn(-c3ccccn3)c(=O)c2c1C` [1-193] stands 1000 to 10000 nM; under `COc1ccc(F)c(-n2c(C)c3cnn(-c4ccccn4)c(=O)c3c2C)c1` [1-194], 100 to 1000 nM.
As for `Cc1c2cnn(-c3ccccn3)c(=O)c2c(C)n1-c1cc(F)cc(N2CCC2)c1` [1-195], the IC50 is under 100 nM.
Under `Cc1c2cnn(-c3ccccn3)c(=O)c2c(C)n1-c1cc(N2CCC2)ccc1F` [1-196] stands under 100 nM; under `COc1cccc(-n2c(C)c3cnn(-c4ccccn4)c(=O)c3c2C)c1Cl` [1-197], 100 to 1000 nM.
Under `Cc1c2cnn(-c3ncccn3)c(=O)c2c(C)n1-c1cccc2c1ccn2C1CC1` [1-198] stands under 100 nM.
Under `Cc1c(OC2CC2)cccc1-n1c(C)c2cnn(-c3ncccn3)c(=O)c2c1C` [1-200] stands under 100 nM; under `Cc1ccc(-n2c(C)c3cnn(-c4ccccn4)c(=O)c3c2C)c(C)c1` [1-201], 100 to 1000 nM; under `Cc1c2cnn(-c3ccccn3)c(=O)c2c(C)n1-c1cccc(OC(F)F)c1` [1-202], under 100 nM.
In the case of `COc1cccc(-n2c(C)c3cnn(-c4ncccn4)c(=O)c3c2C)c1Cl` [1-203], the IC50 was in the range of 100 to 1000 nM.
Under `COc1cccc(-n2c(C)c3cnn(-c4ncc(C)cn4)c(=O)c3c2C)c1Cl` [1-204] stands 100 to 1000 nM; under `Cc1cnc(-n2ncc3c(C)n(-c4cccc(OC5CC5)c4C)c(C)c3c2=O)nc1` [1-205], under 100 nM.
The same measure for `COc1cccc(-n2c(C)c3cnn(-c4ccc(C(C)(C)C)cn4)c(=O)c3c2C)c1` [1-206]: 100 to 1000 nM.
